This is an account of results in US12252472B1, “Barbituric acid derivatives, their preparation and use thereof as leukocyte transmigration inhibitors and for treating inflammatory diseases, autoimmune diseases and cancer” (BAR-ILAN UNIVERSITY, priority 2017, dated 2025).

In experiment [1] the test system is mouse monocytes / macrophages from the abdominal cavity. In words: Ten-color flow cytometry (CD115, F4/80) of peritoneal cells from the peritonitis model. In kind it is in vivo. The protocol:
After inducing the inflammation (peritonitis), compound of Formula 2 was injected at a concentration of 12.5 mg/kg (DMSO, 01% in PBS, IP), twice (one day after the other). The next day, mice were sacrificed and the peritoneal liquid was collected from the control and treated mice (n=3 for each group). Two assays were conducted for the estimation of the possible anti-inflammatory effect of compound of Formula 2: leukocyte counting (the total amount and the calculation of the percentage of different leukocyte fractions) and a flow cytometry.
Flow cytometry based on a fluorescent protein marker (CD115) was selected for the analysis. It is generated by monocytes and localized to their plasma membrane as described by Yang, J. et al. (Monocyte and macrophage differentiation: circulation inflammatory monocyte as biomarker for inflammatory diseases. Biomark Res, 2014. 2(1): p. 1). This protein is able to specifically recognize and bind a F4/80 antibody that activates the immune system macrophages (Lin, H. H., et al., The macrophage F4/80 receptor is required for the induction of antigen-specific efferent regulatory T cells in peripheral tolerance. Journal of Experimental Medicine, 2005. 201(10): p. 1615-1625).
Cell viability before the FACS experiment was assessed by incubation in the amine-reactive dye Aqua (Invitrogen) (1:500) dilution in Ca^2+ and Mg^2+-free PBS) for 30 minutes in the dark at room temperature (RT), followed by a single wash in PBS. For all experiments, cells were incubated in 0.5 μg Fc Block (BD Biosciences) for 10 minutes at room temperature (RT). Surface staining was performed in the dark for 30 minutes at 4° C. in staining buffer. A surface marker (CD115, APC clone AFS98, in dilution 1:100, from eBioscience) was used. […] Fluorescence minus one (FMO) controls were used for gating analyses to distinguish positively from negatively staining cell populations. […] Compensation matrices were calculated and applied using FlowJo software (Tree Star). […]
A general note: In flow cytometry, cells or beads pass a laser one at a time.

Another experiment deals with human B-lymphoma cells. Nature of the experiment: B-lymphoma homing assay in NOD.CB17-Prkdcscid/J mice. In kind it is in vivo. Here is the method: Effect on the homing of the B-lymphocytes was tested in a model of B-cell lymphoma. Compound of Formula 2 (7.5 μM) was injected IV, together with 10×10^6 human B-lymphoma cells. After one and a half hours the amount of B-lymphocytes was tested in different organs.

In another experiment the test system is C57BL/6J mice. Nature of the experiment: Acute dextran sodium sulfate (DSS) induced colitis model. The experiment is classed as in vivo, mouse. Here is the method:
The colitis was inducted by adding 1.5% DSS to the drinking water of female C57BL/6J (7-8 weeks old) mice for 5 consecutive days (days 0-4) for all animals in the experimental groups. On day 5, DSS containing water was changed for regular drinking water and treatment was initiated. The working suspension of the compound of Formula 2 was administrated at 15 mg/kg by IV, IP or SC injections at q3w regimen (administered 3 times per week) and at 30 mg/kg by PO at qd regimen (once daily). Treatment continued for 10 days and thereafter mice were euthanized.
Determination of individual body weight of animals was made prior to each dosing and the administered volume was adjusted accordingly. Additional body weights throughout the entire experimental period were taken on a daily bases. The severity of colitis Disease Activity Index (DAI) score was monitored daily according to the criteria shown in Table 3 and calculated as a sum of the weight loss score, the diarrheal score and the hematochezia score. Disease activity index (DAI) based on the methods reported by Friedman et al. (PNAS, 2009) was used.
Mice from all groups were euthanized with isoflurane 24 hours post last dose administration. Colon was collected from each mouse, filled with 4% buffered formalin and colon length was measured. Large intestines were fixed, embedded in paraffin, sections and H&E stained using modified Swiss roll technique. Histological Score evaluation was performed based on: inflammatory cells infiltration and tissue damage, in four compartments of the large intestine graded from 0 to 3.
For tissue damage, discrete lymphoepithelial lesions were scored as 1, mucosal erosions as 2, and extensive mucosal damage and/or extension through deeper structures of the bowel wall as 3. The length of ulceration was measured in mm. The two equally weighted subscores (cell infiltration and tissue damage) at each compartment of the intestine were added as a colitis severity score. Ordinary one-way ANOVA statistical analysis was performed.

[2] abbreviates: abdominal cavity, treated vs non-treated mice, FACS.
[3] abbreviates: 7.5 μM IV together with 10×10^6 cells, after one and a half hours.

Take `COC(=O)c1ccc(COc2c(C=C3C(=O)NC(=O)NC3=O)cccc2C(C)(C)C)cc1` [Formula 2, methyl 4-((2-(tert-butyl)-6-((2,4,6-trioxotetrahydropyrimidin-5(2H)-ylidene)methyl)phenoxy)methyl) benzoate]: the “monocyte phenotype, CD115 expression (shift in pattern of gates 1-4)” value in experiment [1] (C57BL/6 mouse monocytes) is recorded as “reduced differentiation”. In addition, in experiment [1] (setting [2]), the “amount of activated (high macrophages)” value was “considerably decreased” and the “level of non-activated (low macrophage)” value is “elevated”. In addition, the “homing of the cancer cells to the spleen and liver” value with human B-lymphoma cells (7.5 μM IV) was “significantly blocked”. Moreover, in the experiment with human B-lymphoma cells (setting [3]), the “reduction of B-lymphocyte homing in liver” value is “around 33%” and the “reduction of B-lymphocyte homing in spleen” value is reported as “around 22%”. For the same compound, the “Disease Activity Index (DAI) score, PO treated mice” value in the experiment on C57BL/6J mice (30 mg/kg PO qd) is reported as “maximal effect”. Also, in the experiment with C57BL/6J mice (all treated groups vs control groups), the “colon length, amount by which control groups were shorter than treated groups” value is “approximately 2 cm”. Also, in the experiment on C57BL/6J mice (all treated groups: 15 mg/kg IV, IP or SC q3w, 30 mg/kg PO qd, 10 days), the “Disease Activity Index (DAI) score” value is given as “significantly decreased”. In addition, in the experiment with C57BL/6J mice (treated groups vs control groups), the Weight loss score result is given as “significantly lower”. The “stool formation that readily becomes paste on the anus” value with C57BL/6J mice (treated groups vs control mice) is “not detected”. The “Histological score of large intestine” value with C57BL/6J mice (treated vs control mice) is recorded as “significantly lower”.
